From patent publication US20120141491A1, “METHODS AND COMPOSITIONS FOR THE TREATMENT OF CANCERS AND PATHOGENIC INFECTIONS” (priority 2009, published 2012)
“Also recorded” adds a separate entry of the source. Like-named read-outs stand apart in the source and are kept apart here.

Experiments:
Assay type in all cases: cell-based
[1] = test system: Saos-2 osteosarcoma cells expressing GFP-LC3; experiment: Autophagy response by punctate localization of GFP-LC3 to autophagic vacuoles, fluorescence microscopy; conditions: for Activate Autophagy Response: Table 1; for Enhancement of autophagy (GFP-LC3 at autophagic vacuoles) / Stimulation of autophagy compared with amino acid and serum starved cells (FIG. 2G): enriched (Fed) medium; for Induction of autophagy: Table 2; for Stimulation of autophagy compared with amino acid and serum starved cells (FIG. 2G): 100 μM
Experimental: FIGS. 2A-2G. Activation of autophagy by Bcl-XL targeting compounds. The positions of C2 in Site 1 (FIG. 2A), C5 in Site 1 (FIG. 2B), and C8 in Site 2 (FIG. 2C) of Bcl-xl are shown by in silico molecular docking. Saos-2 osteosarcoma cells expressing GFP-LC3 were incubated in enriched (Fed) medium in the presence of C2 (FIG. 2D), C5 (FIG. 2E) and C8 (FIG. 2F) Bcl-targeted compounds. GFP-LC3 is found diffuse throughout the cytosol and nucleus when autophagy is suppressed. Ongoing autophagy can be visualized by the presence of GFP-LC3 at autophagic vacuoles (AVs) that appear as dots (arrows). […] In FIG. 2E, Saos-2 osteosarcoma cells expressing GFP-LC3 were incubated in enriched (Fed) medium in the absence and presence of Bcl-targeted compounds or in medium lacking amino acids and serum (Starved).
FIG. 4A-4F. Activation of autophagy by Bcl-targeted compounds. The localization of GFP-LC3 to autophagic vacuoles was enhanced by […] Bcl-targeted compounds in Saos-2 osteosarcoma cells. The autophagy response in fed Saos2 cells was measured in the absence and presence of anti-Bcl compounds by visualizing the punctate localization of GFP-LC3 (FIGS. 4A-4C) and RFP-GFP-LC3 (FIGS. 4D-4F) to autophagic vacuoles. In untreated fed cells, the GFP-LC3 is localized uniformly throughout the cell. […] Autophagy in cells expressing RFP-GFP-LC3 (FIGS. 4D-4F) was activated with compound B2-1. Structures containing RFP (red, FIG. 4D) and GFP (green, FIG. 4E) are autophagosomes (arrow), while RFP (red, FIG. 4D) structures are autolysosomes (arrowhead).
(§1) FIGS. 5A-5C. Characterization of proBeclin 1 compounds. Upon ranking 100 NCl compounds by in silico docking to Bcl-xl, the autophagy responses were evaluated in fed Saos-2 cells expressing GFP-LC3 (FIG. 5A). […] Cells were maintained in nutrient-rich medium in the absence and presence of Bcl-targeted compounds for 4 hr. The cells were then solubilized, Beclin 1 complex immunoprecipitated, and the Beclin 1 hound proteins identified by Western blotting (FIG. 5C). The IgG-LC is the immunoglobin light chain of the anti-Beclin 1 antibody that was used to immunoprecipitate the complex. The absence of Bcl-xl is indicative of an inhibition of Beclin 1 binding.
This was done in Saos-2 osteosarcoma cells stably expressing the autophagosome marker, GFP-LC3. In fed cells not undergoing autophagy GFP-LC3 is a soluble protein found throughout the cytosol. In amino acid and serum starved cells, autophagy is activated and GFP-LC3 becomes associated with autophagic vacuoles that can be visualize by fluorescence microscopy.
(§2) When autophagy is suppressed, GFP-LC3 distributes uniformly throughout the cellular cytoplasm (FIG. 4A). Autophagy response can be observed by visualizing the punctuate pattern of GFP-LC3 indicative of the presence of autophagic vacuoles. We can also use tandem-labeled LC3, RFP-GFP-LC3 to better assess the dynamics of the autophagy response by visualizing both autophagosomes and autolysosomes (FIG. 4D-4F). […] To further substantiate that the accumulation of GFP-LC3 structures is not due to a blockage of basal autophagy but the positive effects of the compounds on the autophagy response, the autophagy response is validated by quantitative protein turnover measures using radiolabeled amino acids (FIG. 5B). Finally, we determine whether the compound interferes with Beclin 1 binding to Bcl-xl (FIG. 5C) and Bcl-2 as we would suspect if the compound acts through the intended novel mechanism of action.

[2] = test system: protein degradation; experiment: Protein degradation by pulse-chase methods using 14C-valine; conditions: for Rates of protein degradation (FIG. 5B): 14C-valine pulse-chase, compared to a control compound, n=6; for Stimulate Protein Degradation: Table 1; for Proteolysis, bar coding of FIG. 5A: black bar stimulated, striped bar inhibited
Experimental: as §1, §2

[3] = test system: Beclin 1/Bcl binding; experiment: Beclin 1/Bcl binding by immunoprecipitation with anti-Beclin 1 antibodies and Western blotting; conditions: for Inhibit Beclin 1 Binding: Table 1; for Beclin 1 binding to Bcl-xl / Bcl proteins: nutrient-rich medium, 4 hr
From the text: FIGS. 5A-5C. Characterization of proBeclin 1 compounds. […] Cells were maintained in nutrient-rich medium in the absence and presence of Bcl-targeted compounds for 4 hr. The cells were then solubilized, Beclin 1 complex immunoprecipitated, and the Beclin 1 hound proteins identified by Western blotting (FIG. 5C). The IgG-LC is the immunoglobin light chain of the anti-Beclin 1 antibody that was used to immunoprecipitate the complex.
Autophagy response can be observed by visualizing the punctuate pattern of GFP-LC3 indicative of the presence of autophagic vacuoles. We can also use tandem-labeled LC3, RFP-GFP-LC3 to better assess the dynamics of the autophagy response by visualizing both autophagosomes and autolysosomes (FIG. 4D-4F). […] Finally, we determine whether the compound interferes with Beclin 1 binding to Bcl-xl (FIG. 5C) and Bcl-2 as we would suspect if the compound acts through the intended novel mechanism of action.

[4] = test system: NeuT cells
Experimental: FIGS. 3A-3E. Effects of Bcl-XL targeted small compounds on the autophagy response and cell survival in NeuT cells. The positions of C4 in Site 1 (FIG. 3A), and C9 in Site 2 (FIG. 3B) of Bcl-xl are shown by in silico molecular docking. NeuT (Her2-positive breast cancer cell line) cells expressing GFP-LC3 were incubated in enriched (Fed) medium in the presence of C4 (FIG. 3C) and C9 (FIG. 3D) Bcl-targeted compounds. GFP-LC3 is found on autophagic vacuole that appear as dots (arrows). In FIG. 3E, the survival of NeuT cells was quantified after 20h of treatment with 0.1-1000 μM of Site 1 (C2 and C4) and Site 2 (C7 and C9) compounds.
Cell survival is suppressed by Bcl2-targeted compounds: Next, we examined the effects of the Bcl-xl targeted compounds C2, C4, C7, and C9 on autophagy and cell death in Her2/Neu-positive NeuT breast carcinoma cells (FIGS. 3A-E).

SMILES: O=C1/C(=N\Nc2cc(Cl)ccc2O)C(S(=O)(=O)O)=Cc2cc(S(=O)(=O)O)cc(O)c21 [NSC100234, (3E)-3-[(5-chloro-2-hydroxyphenyl)hydrazinyleidene]-5-hydroxy-4-oxonapthalene-2,7-disulfonic acid]
- Activate Autophagy Response [1]: Yes
- Enhancement of autophagy (GFP-LC3 at autophagic vacuoles) [1]: stimulate autophagy
- Rates of protein degradation (FIG. 5B) [2]: stimulate
- Stimulate Protein Degradation [2]: Yes
- Inhibit Beclin 1 Binding [3]: Yes
- Beclin 1 binding to Bcl-xl / Bcl proteins [3]: inhibiting Beclin 1 binding

SMILES: CN(C)CCNNC1CCCN(C)C1 (stereo not drawn) [NSC21689]
- Activate Autophagy Response [1]: Yes
- Enhancement of autophagy (GFP-LC3 at autophagic vacuoles) [1]: activate autophagy
- Rates of protein degradation (FIG. 5B) [2]: activate
- Stimulate Protein Degradation [2]: Yes
- Inhibit Beclin 1 Binding [3]: No
- Beclin 1 binding to Bcl-xl / Bcl proteins ([3]; listed as Bx-16): did not; also recorded: do not appear to affect Beclin 1 binding; also recorded: does not inhibit Beclin 1 binding as well as Bx-8

SMILES: Clc1cc(Cl)c(C[N+]23CN4CN(CN(C4)C2)C3)cc1Cl.[Cl-] [NSC155877, 3,5,7-Triaza-1-axoniaadamantane, 1-(2,4,5-trichlorobenzyl)-, chloride]
- Activate Autophagy Response [1]: Yes
- Inhibit Beclin 1 Binding [3]: No

SMILES: O=C(O)CCn1c(=O)[nH]c(=O)n(CCC(=O)O)c1=O [NSC11693]
- Activate Autophagy Response [1]: Yes
- Induction of autophagy [1]: NSC 11693 Induces autophagy; not tested for the induction of cell death

SMILES: CC1CC(C)(C)NCCNC(C)CC(C)(C)NCCN1 (stereo not drawn) [NSC175445, 5,5,7,12,12,14-hexamethyl-1,4,8,11-tetrazacyclotetradecane]
- Activate Autophagy Response [1]: Yes
- Induction of autophagy [1]: NSC 175445 Induces autophagy; not tested for the induction of cell death
- Enhancement of autophagy (GFP-LC3 at autophagic vacuoles) [1]: stimulate autophagy
- Proteolysis, bar coding of FIG. 5A [2]: stimulated proteolysis
- Inhibit Beclin 1 Binding [3]: Yes
- Beclin 1 binding to Bcl-xl / Bcl proteins ([3]; listed as B2-11): inhibited Beclin 1 binding; also recorded: interfere with Beclin 1 binding

SMILES: O=C(c1ccc(Cl)cc1)C(C(c1ccc([N+](=O)[O-])cc1)N1CCCCC1)N1CCCCC1 (stereo not drawn) [NSC150193, 1-(4-chlorophenyl)-3-(4-nitrophenyl)-2,3-di(piperidin-1-yl)propan-1-one]
- Activate Autophagy Response [1]: Yes
- Induction of autophagy [1]: NSC 150193 Induces autophagy; not tested for the induction of cell death
- Enhancement of autophagy (GFP-LC3 at autophagic vacuoles) [1]: stimulate autophagy
- Rates of protein degradation (FIG. 5B) ([2]; listed as B2-7): elevated; also recorded: stimulate
- Stimulate Protein Degradation [2]: Yes
- Proteolysis, bar coding of FIG. 5A [2]: stimulated proteolysis
- Inhibit Beclin 1 Binding [3]: Yes
- Beclin 1 binding to Bcl-xl / Bcl proteins [3]: inhibiting Beclin 1 binding

SMILES: CN(C)CC(CN1c2ccccc2Sc2ccccc21)N(C)C (stereo not drawn) [NSC169468]
- Stimulation of autophagy compared with amino acid and serum starved cells (FIG. 2G) [1]: stimulated autophagy to levels seen in amino acid and serum starved cells
- Activate Autophagy Response [1]: Yes
- Induction of autophagy [1]: NSC 169468 Induces autophagy; not tested for the induction of cell death

SMILES: C1CC2NCCC3NCCC(N1)N32 (stereo not drawn) [NSC81462, Dodecahydro-1,4,7,9b-tetraazaphenalene]
- Activate Autophagy Response [1]: Yes
- Enhancement of autophagy (GFP-LC3 at autophagic vacuoles) [1]: stimulate autophagy
- Rates of protein degradation (FIG. 5B) ([2]; listed as Bx-8): elevated; also recorded: stimulate
- Stimulate Protein Degradation [2]: Yes
- Proteolysis, bar coding of FIG. 5A [2]: stimulated proteolysis
- Inhibit Beclin 1 Binding [3]: Yes
- Beclin 1 binding to Bcl-xl / Bcl proteins ([3]; listed as Bx-8): inhibited Beclin 1 binding; also recorded: inhibiting Beclin 1 binding

SMILES: CN1CCN(CCSC2Cc3cc(Cl)ccc3Sc3ccccc32)CC1 (stereo not drawn) [NSC635366]
- Stimulation of autophagy compared with amino acid and serum starved cells (FIG. 2G) ([1]; listed as C8): promote autophagy; also recorded: stimulated autophagy to levels seen in amino acid and serum starved cells
- Activate Autophagy Response [1]: Yes
- Induction of autophagy [1]: Induces autophagy
- Enhancement of autophagy (GFP-LC3 at autophagic vacuoles) ([1]; listed as Bx19): promote the accumulation of autophagic vacuoles
- Enhancement of autophagy (GFP-LC3 at autophagic vacuoles) ([1]; listed as C8): enhanced autophagy
- Induction of cell death [4]: causes cell death
- Rates of protein degradation (FIG. 5B) [2]: inhibit protein degradation
- Stimulate Protein Degradation [2]: No

SMILES: OC(CCl)CN1CC[N+]2(CC1)CC[N+]1(CCN(CC(O)CCl)CC1)CC2.[Cl-].[Cl-] (stereo not drawn) [NSC166100, 3,12-Bis(3-chloro-2-hydroxypropyl)-3,12-diaza-6,9-diazoniadispiro[5.2.5.2]hexadecane dichloride]
- Stimulation of autophagy compared with amino acid and serum starved cells (FIG. 2G) [1]: promote autophagy
- Activate Autophagy Response [1]: Yes
- Induction of autophagy [1]: Induces
- Inhibit Beclin 1 Binding [3]: No

SMILES: CC(=O)C1=C(O)C2(C)c3c(O)c(C)c(O)c(C(C)=O)c3OC2CC1=O (stereo not drawn) [NSC280057]
- Stimulation of autophagy compared with amino acid and serum starved cells (FIG. 2G) ([1]; listed as C10): promote autophagy; also recorded: stimulated autophagy to levels seen in amino acid and serum starved cells
- Activate Autophagy Response [1]: Yes
- Induction of autophagy [1]: Induces autophagy
- Induction of cell death ([4]; Table 2, cells not given): causes cell death
- Inhibit Beclin 1 Binding [3]: No

SMILES: Cl.NC(CSSCC(N)Cc1ccccc1)Cc1ccccc1 (stereo not drawn) [NSC656252]
- Activate Autophagy Response [1]: Yes
- Induction of autophagy [1]: Induces autophagy
- Induction of cell death ([4]; Table 2, cells not given): causes cell death
